Experimental data published in patent publication US20180037909A1, “MODIFIED CANCER CELL LINES AND USES THEREOF” (Chang Gung Memorial Hospital, Linkou, priority 2016, published 2018).

Columns and labels:
MCF7 breast cancer cells = assay: Cell growth monitored by xCELLigence System; format: cell-based; conditions: FIG. 9
Protocol: An in vitro evaluation of the effect of ST3Gal1 siRNA (to knock down ST3Gal1 expression) and anti-cancer agent was performed using breast cancer cells.
MCF7 breast cancer cells were treated with one of the regimes in Table 2 and cell growth was monistored by xCELLigence System (ACEA Biosciences, Inc., USA)

[1] = target: CD55 from MDA-MB-231 breast cancer cells transfected with ST3Gal1 siRNA (UniProt P08174); assay: CD55 signal in PNA precipitate of lysate, ST3Gal1 siRNA cells against scramble siRNA cells
UniProt P08174, sequence (P08174 35-353 limits assumed): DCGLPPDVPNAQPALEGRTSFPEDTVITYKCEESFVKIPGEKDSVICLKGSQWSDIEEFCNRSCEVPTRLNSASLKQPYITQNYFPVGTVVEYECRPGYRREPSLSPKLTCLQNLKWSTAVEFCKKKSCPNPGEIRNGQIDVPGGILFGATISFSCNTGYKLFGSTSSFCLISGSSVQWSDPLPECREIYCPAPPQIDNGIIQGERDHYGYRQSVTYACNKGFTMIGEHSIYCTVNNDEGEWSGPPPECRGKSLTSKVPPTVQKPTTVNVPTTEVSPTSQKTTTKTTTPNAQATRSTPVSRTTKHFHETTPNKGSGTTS

[2] = test system: C3 deposit on breast cancer cells; assay: C3 deposition on cancer cell surface by flow cytometry with anti-C3 antibody; format: cell-based; conditions: human serum, non-lytic conditions
Protocol: An in vitro evaluation was performed to assess the decay-accelerating ability of ST3Gal1 silenced breast cancer cells with de-sialylated CD55, by measuring the deposition of C3 fragments on the cancer cell surface.
Breast cancer cells were incubated under non-lytic conditions with human serum and deposited C3 were detected by flow cytometric analysis using anti-C3 antibody. […] There is minimal C3 deposit in both scramble RNA (sc) and ST3Gal1 siRNA (si) transfected breast cancer cells in the absence of anti-HLA antibody (geometric mean fluorescence: sc, 31.5±0.2×10^3; si, 35.2±0.6×10^3).

CD46 and CD59 = assay: Western blot of CDC regulatory proteins; format: cell-based; conditions: breast cancer cells; FIG. 2B
Description: In addition, the expression levels of CD46 or CD59 were unaffected in breast cancer cells transfected with ST3Gal1 siRNA.

[3] = test system: neuroblastoma cells (SH-SY5Y); assay: AlamarBlue cell proliferation assay; format: cell-based; conditions: fluorescence 590 nm, FIG. 7B
Protocol: (§1) Prostate cancer cells (PC3, Bioresource Collection and Research Center, Taiwan) and neuroblastoma cells (SH-SY5Y, obtained from Professor Yi-Cheng Chen, Mackay Medical College, Taiwan) were transfected with a scramble RNA (sc) or ST3Gal1 siRNA (si) according to Example 1. The cell proliferation was determined by AlamarBlue assay using Victor X3 plate reader to measure the fluorescence (590 nm) that was used to present the level of cell proliferation.

[4] = test system: Prostate cancer cells (PC3); assay: AlamarBlue cell proliferation assay; format: cell-based; conditions: fluorescence 590 nm, FIG. 7A
Protocol: as §1

CD55 [5] = assay: PNA lectin blot / PNA precipitation of cell lysates with mass spectrometry and CD55 blot; format: cell-based; conditions: breast cancer cells
Protocol: To examine the protein target of ST3Gal1 in breast cancer cells, total cell lysates from scramble or ST3Gal1 siRNA treated breast cancer cells were prepared for PNA lectin blot analysis after precipitation with agarose bound PNA. ST3Gal1 catalyzes the sialylation of galactosyl (β-1, 3) N-acetylgalactosamine, by adding sialic acid to Core 1 O-glycans. Since Peanut agglutinin (PNA) binds preferentially to Core 1 O-glycans (without the added sialic acid), ST3Gal1 knock down is expected to increase PNA binding to Core 1 O-glycans.
As expected, PNA-binding signals in breast cancer cells increased at about 72, 130 and 250 kDa molecular weight, after ST3Gal1 knock down (FIG. 1B). Using in-gel digestion and LTQ-FTD MASS spectrometry, CD55 was identified as one of the PNA-binding proteins with increased signal (by 2.6 folds) after ST3Gal1 knock down and the molecular weight of CD55 is slightly lower in ST3Gal1 silenced cells (FIG. 1C). However, the total CD55 protein levels remained similar (sc vs. si: 1.0 vs. 1.1) (FIG. 1D).

MDA-MB-231 cells = assay: ADCC assay with human PBMC effectors and anti-SSEA4 antibody; format: cell-based; conditions: anti-SSEA4 antibody, Effector:Target ratio 10:1
Protocol: (§2) MDA-MB-231 breast cancer cells were transfected with scramble RNA (sc) or ST3Gal1 siRNA (si) according to Example 1. After four days, cells were collected and analyzed for the expression of membrane complement regulatory proteins (mCRPs) and target antigen by fluorescence-activated cell sorting (FACS). There was no change in the expression levels of mCRPs (CD46, CD55, and CD59) and target antigens (HLA and SSEA4) with ST3Gal1 silencing.
ADCC assay was performed using human PBMC cells as effectors, anti-SSEA4 as antibody, and ST3Gal1siRNA transfected MDA-MB-231 cells as targets. […] The mean percentages of lysis are 24.2±1.7% and 41.5±2.4% for sc and si, respectively at Effector:Target ratio of 10:1 ratio (E/T10), and the difference is statistically significant.

[6] = test system: mCRPs (CD46, CD55, and CD59) and target antigens (HLA and SSEA4); assay: FACS expression of membrane complement regulatory proteins and target antigens; format: cell-based; conditions: MDA-MB-231, four days after transfection
Description: as §2

ST3Gal1 mRNA = ST3Gal1 mRNA expression by qPCR, normalized to GAPDH mRNA; format: cell-based; conditions: MDA-MB-231 breast cancer cells; for expression of ST3Gal1 RNA compared to sc RNA, siRNA-A or pVoid transfected cells: FIG. 8A-8C
Protocol: MDA-MB-231 breast cancer cells (available from Bioresource Collection and Research Center, Taiwan) were transfected with scramble siRNA (sc) or ST3Gal1 (si) siRNA with an antisense strand (SEQ ID NO:2) and a sense strand (SEQ ID NO:3). The expression levels of the ST3Gal1 mRNA were analyzed by qPCR analysis and normalized to GAPDH mRNA levels.
MDA-MB-231 breast cancer cells were transfected with scramble siRNA (sc), a vector without shRNA (pVoid), shRNA1-3 (SEQ ID NO:11), shRNA 1-4 (SEQ ID NO:12), or the siRNA listed in Table 1 below:
The expression levels of the ST3Gal1 mRNA were analyzed by qPCR analysis and normalized to GAPDH mRNA levels.

CD55 [7] = assay: LC-MS/MS analysis of released, permethylated O-glycans of CD55; conditions: ST3Gal1 silenced vs sc transfected breast cancer cells
Description: The bi- and tri-antennary structures were all detected as glycoforms of the expected tryptic peptide […], previously reported as the single N-linked glycosylation site. […] The sialylation of core 1 and core 2 O-glycan on CD55 regulates the activity of CD55.
Impairment of 2-3-sialylation of the O-glycans of the CD55 molecule increases non-sialylated core 1 and monosialylated core 2, at the expenses of disialylated core 2 structure. On the other hand, the relative amount of the monosialylated core 1 O-glycan of the CD55 molecule (m/z 895.462) was similar in ST3Gal1 silenced and sc transfected breast cancer cells, probably due to compensation of 2-6-sialylation.

Compound: CC/C(=C(\c1ccccc1)c1ccc(OCCN(C)C)cc1)c1ccccc1 [tamoxifen]
- Cancer cell viability (MCF7 breast cancer cells): 76%

Compound: COc1cc2c(Nc3ccc(Br)cc3F)ncnc2cc1OCC1CCN(C)CC1 [vandetanib]
- Cancer cell viability (MCF7 breast cancer cells): 37.5%

Compound: Peanut agglutinin (PNA) (from UniProt P02872 24-259)
- fold increase of signal after ST3Gal1 knock down (against scramble siRNA cells) [1]: 2.6 fold

Compound: ST3Gal1 siRNA: ST3Gal1 siRNA with an antisense strand (SEQ ID NO:2) and a sense strand (SEQ ID NO:3) (sense CCGGUUCCUGCAAAGAUCAGAGUGA; antisense UCACUCUGAUCUUUGCAGGAACCGG; listed as RNA, chemistry not given here)
- C3 deposit, geometric mean fluorescence ([2]; 10 μg/ml anti-HLA antibody): 89.5±5.5×10^3
- C3 deposit, geometric mean fluorescence ([2]; 25 μg/ml anti-HLA antibody): 164.8±0.8×10^3
- C3 deposit, geometric mean fluorescence ([2]; absence of anti-HLA antibody): 35.2±0.6×10^3
- expression levels of CD46 or CD59 (CD46 and CD59): unaffected
- proliferation of neuroblastoma cells compared to sc RNA [3]: significantly reduced
- proliferation of prostate cancer cells compared to sc RNA [4]: significantly reduced
- increase of CD55 PNA-binding signal after ST3Gal1 knock down (CD55 [5]; FIG. 1C): 2.6 folds
- total CD55 protein levels (sc = 1.0) (CD55 [5]; FIG. 1D): 1.1
- mean percentage of lysis (ADCC) (MDA-MB-231 cells): 41.5±2.4%
- expression levels of mCRPs (CD46, CD55, CD59) and target antigens (HLA, SSEA4) [6]: no change
- expression of ST3Gal1 RNA, % of that of sc transfected breast cancer cells (ST3Gal1 mRNA; normalized to GAPDH mRNA): 28.5±8.2%
- relative amount of monosialylated core 1 O-glycan of CD55 (m/z 895.462) (CD55 [7]): similar
- relative amount of disialylated core 2 structure at m/z 864.426 (2+) on CD55 (CD55 [7]; FIG. 6B): significantly reduced
- relative amount of monosialylated core 2 structure at m/z 683.839 (2+) on CD55 (CD55 [7]; FIG. 6B): increased
- Cancer cell viability (MCF7 breast cancer cells): 65%

Compound: shRNA1-3: shRNA1-3 (SEQ ID NO:11) (CCGGGCTGGGAGATAATGTCAGCATCTCGAGATGCTGACATTATCTCCCAGCTTTTTG)
- expression of ST3Gal1 RNA compared to sc RNA, siRNA-A or pVoid transfected cells (ST3Gal1 mRNA): reduced

Compound: shRNA1-4: shRNA 1-4 (SEQ ID NO:12) (CCGGGCGGGAGAAGAAGCCCAATAACTCGAGTTATTGGGCTTCTTCTCCCGCTTTTTG)
- expression of ST3Gal1 RNA compared to sc RNA, siRNA-A or pVoid transfected cells (ST3Gal1 mRNA): reduced

Compound: siRNA-1: siRNA, antisense AUCUCAGGCCCAUAAGAAGACUCCC (SEQ ID NO: 4), sense GGGAGUCUUCUUAUGGGCCUGAGAU (SEQ ID NO: 5) (listed as RNA, chemistry not given here)
- expression of ST3Gal1 RNA compared to sc RNA, siRNA-A or pVoid transfected cells (ST3Gal1 mRNA): reduced

Compound: siRNA-2: siRNA, antisense UCAUGCUGACAUUAUCUCCCAGCUC (SEQ ID NO: 6), sense GAGCUGGGAGAUAAUGUCAGCAUGA (SEQ ID NO: 7) (listed as RNA, chemistry not given here)
- expression of ST3Gal1 RNA compared to sc RNA, siRNA-A or pVoid transfected cells (ST3Gal1 mRNA): reduced

Compound: siRNA-3: siRNA, antisense UUGAGAAGAUGACCGAGAGGAUGCC (SEQ ID NO: 8), sense GGCAUCCUCUCGGUCAUCUUCUCAA (SEQ ID NO: 9) (listed as RNA, chemistry not given here)
- expression of ST3Gal1 RNA compared to sc RNA, siRNA-A or pVoid transfected cells (ST3Gal1 mRNA): reduced
